Experimental data: patent US20210220295A1, “TREATMENT OF CANCER BY GUANIDINIUM DERIVATIVES” (priority 2018, published 2021)

Key:
[1] = mouse, in vivo
[2] = tested on: MCF-7 brca1+/+cells; settings: 10 μM, exposure for 10 consecutive days; cited from earlier work
[3] = tested on: CAPANI cells (which are deficient in brca2); settings: cited from earlier work

## poly-[2-(2-ethoxyethoxyethyl)guanidinium hydrochloride]
[1]
  tolerated dose, daily intravenous dosing regime: 2.5 mg/kg body weight
[1]; iv
  tolerated dose, weekly basis: 5 mg/kg body weight

## CN(C)Cc1ccc(-c2nc3cccc4c3n2CCNC4=O)cc1 [AG14361]
[2]
  MCF-7 brca1+/+ cells eradicated: 50%

## Cc1nc2c(O)cccc2c(=O)[nH]1 [NU1025]
[3]
  inhibition of CAPANI cells: not inhibited

## O=C1CCC(=O)N1c1cc(Cc2n[nH]c(=O)c3ccccc23)ccc1F [KU0058684]
[3]
  inhibition of CAPANI cells: inhibited
